SMILES strings stand for the structures. Some results are limits rather than exact numbers.

One assay concerns the target p38 MAPK (Homo sapiens, UniProt Q16539). The assay can be described thus: Inhibition of p38 MAPK. Type of assay: biochemical.
In assay [1] the test system is IL-12p70 production in PBMCs stimulated with LPS. The assay can be described thus: Stimulation of IL-12p70 in human PBMCs stimulated with LPS (ELISA / multiplex immunoassay). The assay is classed as cell-based. The following applies: PBMC, LPS 1 μg/mL, 72 hrs culture, read-out: Stimulation of IL-12p70 in PBMC's stimulated with LPS EC50. On the procedure:
(§1) Human PBMCs from six healthy donors were isolated from whole blood. PBMCs were resuspended in RPMI-10 at 1×10^6/mL and plated at a density of 2×10^5 per well (200 μL) in 96-well round bottom culture plates. Treatments or reference controls at different concentrations were prepared in DMSO according to client/supplier instruction and added directly to wells at a final volume of 0.2 μL per well (1:1000). After 2 hours, LPS was added to the culture (1 μg/mL final, 10 μL per well). Cells were cultured for 72 hrs at 37° C. and 5% CO2. Cell-free supernatants were collected at the end of culture period, transferred to new 96-well plates and frozen at −80° C. prior to assessment of IFN-γ, IL-10, IL-12p70 and TNF-α by ELISA and multiplex immunoassay.
(§2) Cultures were performed in triplicate to provide technical replicates and PBMCs from six healthy donors were included to provide biological replication.
(§3) All test and reference substances were formulated at 10 mM stock concentration in anhydrous DMSO, filtered and frozen in aliquots. Immediately prior to addition to assay, stock solutions were diluted in DMSO to prepare solutions at 1000 times the final required concentration. All final formulations were freshly prepared and kept sterile and light protected prior to the addition in cultures.
(§4) ELISA plates were read at 450 nm using an Infinite F50 (Tecan) absorbance reader and Magellan™ reader control and data analysis software. Multiplex immunoassays were read using a Luminex MAGPIX multiplexing system and ProcartaPlex Analyst 1.0 software. Graphs were prepared using Graphpad Prism (v6.0). Data were normalised to mean of respective vehicle control group (100%) within each biological replicate to account for donor variation.
In general terms: In an ELISA, binding on a coated surface is turned into a signal by an enzyme label.

Assay [2] deals with IFN-γ production in PBMCs stimulated with LPS. The assay can be described thus: Stimulation of IFN-γ in human PBMCs stimulated with LPS (ELISA / multiplex immunoassay). Type of assay: cell-based. The following applies: LPS 1 μg/mL, 72 hrs culture. On the procedure:
as §1, §2, §3, §4

Assay [3] concerns IL10 production in PBMCs stimulated with LPS. As to the kind of experiment: Inhibition of IL10 in human PBMCs stimulated with LPS (ELISA / multiplex immunoassay). The assay is classed as cell-based. Conditions: for IC50: PBMC, human PBMCs, LPS 1 μg/mL, 72 hrs culture, read-out: Inhibition of IL10 in PBMC's stimulated with LPS IC50. On the procedure:
as §1, §2, §3, §4

Setting [4] is: versus 6-Amino-5-(2,4-difluorobenzoyl)-1-[2,6-difluorophenyl]pyridin-2(1H)-one and PH797804.

Sequence of p38 MAPK (Q16539 whole entry): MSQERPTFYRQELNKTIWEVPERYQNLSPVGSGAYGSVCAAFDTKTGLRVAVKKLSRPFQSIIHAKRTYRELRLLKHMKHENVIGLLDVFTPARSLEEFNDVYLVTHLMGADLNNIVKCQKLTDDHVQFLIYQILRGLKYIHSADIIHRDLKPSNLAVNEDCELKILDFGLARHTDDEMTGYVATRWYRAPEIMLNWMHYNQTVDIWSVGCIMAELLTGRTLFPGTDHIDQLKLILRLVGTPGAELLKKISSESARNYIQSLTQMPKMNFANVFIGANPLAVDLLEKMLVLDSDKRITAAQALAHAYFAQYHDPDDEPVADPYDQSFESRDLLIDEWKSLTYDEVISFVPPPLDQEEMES

The term EC50 denotes the midpoint of the concentration-response curve. What is called IC50 is the point on the concentration scale where inhibition reaches its midpoint. As for `Nc1c(C(=O)c2ccc(F)cc2F)ccc(=O)n1-c1c(F)cccc1F` [6-Amino-5-(2,4-difluorobenzoyl)-1-[2,6-difluorophenyl]pyridin-2(1H)-one], the results for the EC50 (at p38 MAPK; in assay [1]) were below 1 nM and above 300 nM, respectively. The “Stimulation of INF-γ in PBMCs stimulated with LPS EC50 (nM)” value in assay [2] was “No stimulation”. In assay [3], the IC50 was found to be 10 nM.

Regarding `C[C@H](NCCc1cc(F)c(-n2c(N)c(C(=O)c3ccc(F)cc3F)ccc2=O)c(F)c1)C(=O)OC(C)(C)C` [tert-Butyl N-(2-{4-[6-amino-5-(2,4-difluorobenzoyl)-2-oxopyridin-1(2H)-yl]-3,5-difluorophenyl}ethyl)-L-alaninate], the EC50 at p38 MAPK was 12 nM; in assay [1], below 1 nM; in assay [2] (PBMC, read-out: Stimulation of INF-γ in PBMCs stimulated with LPS EC50) it was 1 nM. For the same compound, the “Fold less potent inhibitory activity against p38 MAPK than the reference inhibitors” value at p38 MAPK (setting [4]) is reported as 10 fold. Further, the IC50 in assay [3] was below 1 nM. The “IL10 production inhibited at concentrations fold lower than conventional p38 MAPK inhibitors” value in assay [3] (setting [4]) is reported as “at least 10 fold”.

For `CNC(=O)c1ccc(C)c(-n2c(C)cc(OCc3ccc(F)cc3F)c(Br)c2=O)c1` [PH797804, 3-[3-Bromo-4-[(2,4-difluorophenyl)methoxy]-6-methyl-2-oxo-1(2H)-pyridinyl]-N,4-dimethyl-benzamide], the 50% effective concentration (EC50) in assay [1] is above 300 nM. Further, the “Stimulation of INF-γ in PBMCs stimulated with LPS EC50 (nM)” value in assay [2] is on record as “No stimulation”. For the same compound, in assay [3], the IC50 was found to be 10 nM.

The values are drawn from patent US11382902B2, “Treatment of cancer by stimulation of IL-12 production” (Macrophage Pharma Limited, priority 2017, dated 2022).
